Data taken from PubChem BioAssay (NCI).
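Following 48 hours of exposure in 96-well plates, responses at five concentrations were used to interpolate endpoints linearly. The concentration for full growth arrest is given as TGI.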

Tests used:
Assay in all cases: NCI tumour cell line growth inhibition, 48 h
RPMI-8226 leukemia = tested on: RPMI-8226 leukemia
HOP-62 NSCLC = tested on: HOP-62 NSCLC
UO-31 renal = tested on: UO-31 renal
XF 498 CNS = tested on: XF 498 CNS
SK-OV-3 ovarian = tested on: SK-OV-3 ovarian
CAKI-1 renal = tested on: CAKI-1 renal
M14 melanoma = tested on: M14 melanoma
A549 NSCLC = tested on: A549 NSCLC
HCT-116 colon = tested on: HCT-116 colon
NCI-H23 lung = tested on: NCI-H23 lung
NCI-H460 lung = tested on: NCI-H460 lung
K-562 leukemia = tested on: K-562 leukemia
SF-268 CNS = tested on: SF-268 CNS
SF-295 CNS = tested on: SF-295 CNS
RXF-631 renal = tested on: RXF-631 renal
LXFL 529 NSCLC = tested on: LXFL 529 NSCLC
TK-10 renal = tested on: TK-10 renal
UACC-62 melanoma = tested on: UACC-62 melanoma
OVCAR-4 ovarian = tested on: OVCAR-4 ovarian
COLO 205 colon = tested on: COLO 205 colon
SN12C renal = tested on: SN12C renal
SNB-19 CNS = tested on: SNB-19 CNS
KM20L2 colon = tested on: KM20L2 colon
U251 CNS = tested on: U251 CNS
SK-MEL-2 melanoma = tested on: SK-MEL-2 melanoma
IGROV1 ovarian = tested on: IGROV1 ovarian
HCC-2998 colon = tested on: HCC-2998 colon
SNB-75 CNS = tested on: SNB-75 CNS
NCI-H226 lung = tested on: NCI-H226 lung
OVCAR-8 ovarian = tested on: OVCAR-8 ovarian
HOP-92 NSCLC = tested on: HOP-92 NSCLC
HT29 colon = tested on: HT29 colon
DMS 273 small cell lung = tested on: DMS 273 small cell lung
KM12 colon = tested on: KM12 colon
OVCAR-5 ovarian = tested on: OVCAR-5 ovarian
MOLT-4 leukemia = tested on: MOLT-4 leukemia
HL-60(TB) leukemia = tested on: HL-60(TB) leukemia
MALME-3M melanoma = tested on: MALME-3M melanoma
M19-MEL melanoma = tested on: M19-MEL melanoma
SF-539 CNS = tested on: SF-539 CNS
DLD-1 colon = tested on: DLD-1 colon
NCI-H522 lung = tested on: NCI-H522 lung
786-0 renal = tested on: 786-0 renal
SR leukemia = tested on: SR leukemia
SNB-78 CNS = tested on: SNB-78 CNS
ACHN renal = tested on: ACHN renal
UACC-257 melanoma = tested on: UACC-257 melanoma
LOX IMVI melanoma = tested on: LOX IMVI melanoma
HCT-15 colon = tested on: HCT-15 colon
SW-620 colon = tested on: SW-620 colon
SK-MEL-28 melanoma = tested on: SK-MEL-28 melanoma
OVCAR-3 ovarian = tested on: OVCAR-3 ovarian
SK-MEL-5 melanoma = tested on: SK-MEL-5 melanoma
CCRF-CEM leukemia = tested on: CCRF-CEM leukemia
RXF 393 renal = tested on: RXF 393 renal
DMS 114 small cell lung = tested on: DMS 114 small cell lung
EKVX NSCLC = tested on: EKVX NSCLC

Work on O=C1C(=O)N(c2ccc(Cl)c(Cl)c2)C(=O)C(=O)C1c1nc2ccccc2o1 yielded a TGI (RPMI-8226 leukemia) of 66.5 µM, a TGI (HOP-62 NSCLC) greater than 100 µM and a TGI (UO-31 renal) greater than 100 µM. For the same molecule, the TGI (XF 498 CNS) was greater than 100 µM, the TGI (SK-OV-3 ovarian) was greater than 100 µM and the TGI (CAKI-1 renal) was greater than 100 µM. The TGI (M14 melanoma) was greater than 100 µM, the TGI (A549 NSCLC) was greater than 100 µM and the TGI (HCT-116 colon) was greater than 100 µM. It also gave a TGI (NCI-H23 lung) greater than 100 µM, a TGI (NCI-H460 lung) greater than 100 µM and a TGI (K-562 leukemia) greater than 100 µM. It also gave a TGI (SF-268 CNS) greater than 100 µM, a TGI (SF-295 CNS) greater than 100 µM and a TGI (RXF-631 renal) greater than 100 µM. The TGI (LXFL 529 NSCLC) was greater than 100 µM, the TGI (TK-10 renal) was greater than 100 µM and the TGI (UACC-62 melanoma) was greater than 100 µM. It also gave a TGI (OVCAR-4 ovarian) greater than 100 µM, a TGI (COLO 205 colon) greater than 100 µM and a TGI (SN12C renal) greater than 100 µM. The TGI (SNB-19 CNS) was greater than 100 µM, the TGI (KM20L2 colon) was greater than 100 µM and the TGI (U251 CNS) was 85.6 µM. It also gave a TGI (SK-MEL-2 melanoma) greater than 100 µM, a TGI (IGROV1 ovarian) greater than 100 µM and a TGI (HCC-2998 colon) greater than 100 µM. The TGI (SNB-75 CNS) was greater than 100 µM, the TGI (NCI-H226 lung) was greater than 100 µM and the TGI (OVCAR-8 ovarian) was greater than 100 µM. The TGI (HOP-92 NSCLC) was greater than 100 µM, the TGI (HT29 colon) was greater than 100 µM and the TGI (DMS 273 small cell lung) was greater than 100 µM. For the same molecule, the TGI (KM12 colon) was greater than 100 µM, the TGI (OVCAR-5 ovarian) was greater than 100 µM and the TGI (MOLT-4 leukemia) was greater than 100 µM. The TGI (HL-60(TB) leukemia) was 53 µM, the TGI (MALME-3M melanoma) was greater than 100 µM and the TGI (M19-MEL melanoma) was greater than 100 µM. For the same molecule, the TGI (SF-539 CNS) was greater than 100 µM, the TGI (DLD-1 colon) was greater than 100 µM and the TGI (NCI-H522 lung) was greater than 100 µM. The TGI (786-0 renal) was greater than 100 µM, the TGI (SR leukemia) was 86 µM and the TGI (SNB-78 CNS) was greater than 100 µM. For the same molecule, the TGI (ACHN renal) was greater than 100 µM, the TGI (UACC-257 melanoma) was greater than 100 µM and the TGI (LOX IMVI melanoma) was greater than 100 µM. For the same molecule, the TGI (HCT-15 colon) was greater than 100 µM, the TGI (SW-620 colon) was greater than 100 µM and the TGI (SK-MEL-28 melanoma) was greater than 100 µM. The TGI (OVCAR-3 ovarian) was greater than 100 µM.
Work on CC(C)(C)[C@H]1CO[C@]2(C)[C@@H]3C[C@@H]3C(=O)N12 yielded a TGI (RPMI-8226 leukemia) greater than 100 µM, a TGI (HOP-62 NSCLC) greater than 100 µM and a TGI (UO-31 renal) greater than 100 µM. It also gave a TGI (XF 498 CNS) greater than 100 µM, a TGI (SK-OV-3 ovarian) greater than 100 µM and a TGI (CAKI-1 renal) greater than 100 µM. The TGI (M14 melanoma) was greater than 100 µM, the TGI (A549 NSCLC) was greater than 100 µM and the TGI (HCT-116 colon) was greater than 100 µM. It also gave a TGI (NCI-H23 lung) greater than 100 µM, a TGI (NCI-H460 lung) greater than 100 µM and a TGI (K-562 leukemia) greater than 100 µM. It also gave a TGI (SF-268 CNS) greater than 100 µM, a TGI (SF-295 CNS) greater than 100 µM and a TGI (RXF-631 renal) greater than 100 µM. It also gave a TGI (TK-10 renal) greater than 100 µM, a TGI (UACC-62 melanoma) greater than 100 µM and a TGI (SK-MEL-5 melanoma) greater than 100 µM. The TGI (OVCAR-4 ovarian) was greater than 100 µM, the TGI (COLO 205 colon) was greater than 100 µM and the TGI (SN12C renal) was greater than 100 µM. The TGI (SNB-19 CNS) was greater than 100 µM, the TGI (KM20L2 colon) was greater than 100 µM and the TGI (U251 CNS) was greater than 100 µM. For the same molecule, the TGI (SK-MEL-2 melanoma) was greater than 100 µM, the TGI (IGROV1 ovarian) was greater than 100 µM and the TGI (HCC-2998 colon) was greater than 100 µM. The TGI (SNB-75 CNS) was greater than 100 µM, the TGI (NCI-H226 lung) was greater than 100 µM and the TGI (OVCAR-8 ovarian) was greater than 100 µM. It also gave a TGI (HOP-92 NSCLC) greater than 100 µM, a TGI (HT29 colon) greater than 100 µM and a TGI (DMS 273 small cell lung) greater than 100 µM. For the same molecule, the TGI (KM12 colon) was greater than 100 µM, the TGI (OVCAR-5 ovarian) was greater than 100 µM and the TGI (HL-60(TB) leukemia) was greater than 100 µM. The TGI (MALME-3M melanoma) was greater than 100 µM, the TGI (M19-MEL melanoma) was greater than 100 µM and the TGI (SF-539 CNS) was greater than 100 µM. It also gave a TGI (CCRF-CEM leukemia) greater than 100 µM, a TGI (DLD-1 colon) greater than 100 µM and a TGI (NCI-H522 lung) greater than 100 µM. The TGI (RXF 393 renal) was greater than 100 µM, the TGI (786-0 renal) was greater than 100 µM and the TGI (SR leukemia) was greater than 100 µM. It also gave a TGI (SNB-78 CNS) greater than 100 µM, a TGI (ACHN renal) greater than 100 µM and a TGI (UACC-257 melanoma) greater than 100 µM. It also gave a TGI (DMS 114 small cell lung) greater than 100 µM, a TGI (LOX IMVI melanoma) greater than 100 µM and a TGI (HCT-15 colon) greater than 100 µM. The TGI (SW-620 colon) was greater than 100 µM, the TGI (SK-MEL-28 melanoma) was greater than 100 µM and the TGI (OVCAR-3 ovarian) was greater than 100 µM. It also gave a TGI (EKVX NSCLC) greater than 100 µM.
